According to PMC9072872, “Structure-based design of nucleoside-derived analogues as sulfotransferase inhibitors” (RSC Advances, 2019):

Key:
TPST1 = target: T1, TPST1 (Homo sapiens, UniProt O60507); experiment: Immunoblot of GST-CC4tide tyrosine sulfation by TPST1 (anti-sulfotyrosine antibody); type: biochemical; settings: compound 400 μM, GST-CC4-tide 1 μg, TPST1 0.2 μg, PAPS 5 μM, 15 min
T1 construct: Human TPST1 (residues Lys43-Leu360) enzyme was purified as a recombinant protein; made in house
T1 sequence (O60507 43-360): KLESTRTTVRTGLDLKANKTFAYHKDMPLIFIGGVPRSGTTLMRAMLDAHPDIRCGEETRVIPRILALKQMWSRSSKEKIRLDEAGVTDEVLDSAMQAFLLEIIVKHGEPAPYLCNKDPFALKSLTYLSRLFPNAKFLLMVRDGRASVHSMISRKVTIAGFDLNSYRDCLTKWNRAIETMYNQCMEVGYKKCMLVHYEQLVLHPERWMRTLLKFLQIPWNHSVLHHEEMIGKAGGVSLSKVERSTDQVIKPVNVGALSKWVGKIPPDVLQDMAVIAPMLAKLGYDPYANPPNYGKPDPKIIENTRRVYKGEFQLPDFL
Description: In order to further assess TPST1 inhibition by 2′-deoxy-PAP and compounds 1–14 using a complementary assay, immunoblotting of a TPST1 protein substrate (GST-CC4tide) was implemented with a monoclonal antibody that specifically recognises sulfotyrosine, using PAP as positive control (Fig. 5A). Compounds were screened at 400 μM in the assay. In common with the […] enzyme assay using a synthetic peptide, a broad range of inhibitory activities was observed.
Fig. 5 Immunological evaluation of TPST1 inhibition towards substrate and a Ser/Thr protein kinase counter-screen. (A) Immunoblots evaluating TPST1 sulfotransferase activity in the presence of a panel of PAP- and PAPS-mimetic compounds. […] After termination of the reaction using SDS-PAGE sample buffer, tyrosine sulfation was visualised by immunoblotting using a monoclonal sulfotyrosine antibody (top panel), with equal GST-CC4-tide and TPST1 loading confirmed using an antibody to detect 6xHis tagged proteins (bottom panel). (B) Enzymatic inhibition of PKA catalytic activity by a panel of PAP- and PAPS-mimetic compounds. PKA kinase (1 nM) was incubated with ATP (5 μM) in the presence of the appropriate nucleoside analogue (400 μM) for 30 min at 20 °C. PKA activity was calculated in real-time using fluorescently-labelled substrate peptide (2 μM) and normalised to DMSO (4% v/v) or buffer control.[77] Data in B is mean and SD of 3 individual experiments. Staurosporine is included at 40 μM as a generic inhibitor of kinase activity. […]
All standard laboratory biochemicals, were purchased from Sigma, and were of the highest analytical quality.
5'-phosphosulfate, lithium salt hydrate, PAP (adenosine 3',5'-diphosphate, disodium salt), CoA (coenzymeA, sodium salt), ATP (adenosine 5’-triphosphate, disodium salt hydrate) were all purchased from Sigma and stored at -80 °C to minimise degradation.
Recombinant Protein Production and SDS-PAGE
Human TPST1 (residues Lys43-Leu360) enzyme was purified as a recombinant protein containing an N-terminal 6xHis tag as previously described. […]
pMAL-c2x plasmid encoding an N-terminal Maltose Binding Protein (MBP) affinity tag.6 Glutathione-S-transferase (GST) tagged CC4-tide ([…]) was cloned into pOPINJ (OPPF-UK) and […]
affinity purified from BL21 (DE3) pLysS E. coli using Glutathione-Sepharose 4B (GE Healthcare). 5 For SDS-PAGE, proteins were denatured in Laemmli sample buffer, heated at 95 °C for 5 min and then analysed by SDS-PAGE with 10% (v/v) polyacrylamide gels. Gels were stained and de-stained using a standard Coomassie Brilliant Blue protocol. To evaluate protein sulfation by immunoblotting, standard western blotting procedures were followed using monoclonal anti-sulfotyrosine ant ibody clone o-1C-A2 (Millipore) generated using a phage display procedure and sulfotyrosine selection peptide antigens7 in the presence of appropriate positive and negative controls, and modifications visua lised using ECL […]
Data was normalized […]
with respect to these control assays, with sulfate incorporation into the substr ate limited to ~ 20% to prevent depletion of PAPS and to ensure assay linearity. K m and IC50 values were determined by non-linear regression analysis with GraphPad Prism software. […]

PKA = PKA (Homo sapiens, UniProt P17612); experiment: PKA kinase counter-screen; type: biochemical; settings: compound 400 μM, PKA 1 nM, ATP 5 μM, 30 min, 20 °C
From the text: Fig. 5 Immunological evaluation of TPST1 inhibition towards substrate and a Ser/Thr protein kinase counter-screen. (A) Immunoblots evaluating TPST1 sulfotransferase activity in the presence of a panel of PAP- and PAPS-mimetic compounds. […] After termination of the reaction using SDS-PAGE sample buffer, tyrosine sulfation was visualised by immunoblotting using a monoclonal sulfotyrosine antibody (top panel), with equal GST-CC4-tide and TPST1 loading confirmed using an antibody to detect 6xHis tagged proteins (bottom panel). (B) Enzymatic inhibition of PKA catalytic activity by a panel of PAP- and PAPS-mimetic compounds. PKA kinase (1 nM) was incubated with ATP (5 μM) in the presence of the appropriate nucleoside analogue (400 μM) for 30 min at 20 °C. PKA activity was calculated in real-time using fluorescently-labelled substrate peptide (2 μM) and normalised to DMSO (4% v/v) or buffer control.[77] Data in B is mean and SD of 3 individual experiments. Staurosporine is included at 40 μM as a generic inhibitor of kinase activity.
Finally, a simple counter-screen was set up employing PKA. This was carried out in order to assess relative specificity for ST inhibition, and using the generic kinase inhibitor staurosporine A as a positive control and PAP and CoA as negative controls, neither of which bind nor inhibit PKA. Compounds were screened at 400 μM in the presence 1 nM PKA.

suppression of tyrosine sulfation (immunoblot) (TPST1)	inhibitory activity towards PKA (PKA)	SMILES
complete suppression	no activity	Nc1ncnc2c1ncn2[C@H]1C[C@H](OP(=O)(O)O)[C@@H](COP(=O)(O)O)O1 [2′-deoxy-PAP]
inactive	–	Nc1ncnc2c1ncn2[C@H]1C[C@H](O)[C@@H](Cn2cc(P(=O)(O)O)nn2)O1 [Compound 11]
partial suppression	–	Nc1ncnc2c1ncn2[C@H]1C[C@H](OP(=O)(O)O)[C@@H](Cn2cc(P(=O)(O)O)nn2)O1 [Compound 12]
partial suppression	–	Nc1ncnc2c1ncn2[C@H]1C[C@H](O)[C@@H](Cn2cc(P(=O)(O)OCc3ccccc3)nn2)O1 [Compound 13]
